In patent US20110027372A1, “MULTIPARTICULATES COMPRISING LOW-SOLUBILITY DRUGS AND CARRIERS THAT RESULT IN RAPID DRUG RELEASE” (priority 2005, published 2011):

Assay: Ratio of melting temperature to glass-transition temperature (Tm/Tg) of sugar alcohols
Format: physicochemical
From the text: The inventors addressed this problem by using a sugar alcohol that rapidly crystallizes, resulting in improved recovery and efficiency during the multiparticulate-formation process. Without wishing to be bound by any particular theory, it is believed that the tendency for a sugar alcohol to crystallize from an aqueous solution is characterized by the ratio of the Tm of the sugar alcohol (in K) to the glass-transition temperature for the alcohol, Tg (in K) of the sugar alcohol. The driving force for crystallization is controlled primarily by Tm, while the kinetic barrier to crystallization is controlled primarily by the Tg. The ratio, Tm/Tg (in K/K), indicates the relative propensity for a sugar alcohol to crystallize. The inventors have discovered that sugar alcohols for which the ratio of Tm in K to Tg in K is at least about 1.5 can be effectively used to make multiparticulates with the desired properties. Preferably, this Tm/Tg ratio (K/K) is at least about 1.6, and more preferably at least about 1.65. Examples of suitable sugar alcohols include mannitol (Tm=438 K; Tg=234 K; Tm/Tg=1.87) and erythritol (Tm=394 K; Tg=231 K; Tm/Tg=1.71). Mixtures of such sugar alcohols may also be used.

Structure (SMILES)	Tm/Tg
OC[C@@H](O)[C@@H](O)CO [Erythritol]	1.71 K/K
OC[C@@H](O)[C@@H](O[C@H]1O[C@H](CO)[C@@H](O)[C@H](O)[C@H]1O)[C@H](O)[C@@H](O)CO [Maltitol]	1.32 K/K
OC[C@@H](O)[C@@H](O)[C@H](O)[C@H](O)CO [Mannitol]	1.87 K/K
OC[C@@H](O)[C@@H](O)[C@H](O)[C@@H](O)CO [Sorbitol]	1.38 K/K
OC[C@@H](O)[C@H](O)[C@@H](O)CO [Xylitol]	1.46 K/K
